Experimental data from patent US9725463B2, “Substituted heterocyclic compounds as CRAC modulators” (LUPIN LIMITED, priority 2013, dated 2017).

Test system: IL-2 secretion by Jurkat T cells
Test: Inhibition of IL-2 secretion
Type: cell-based
Settings: Homo sapiens; Jurkat T cells stimulated with PHA, 20 to 24 hours, IL-2 by ELISA
Method: The CRAC channel modulatory activity of the compounds were thus evaluated by measuring the secretion of IL-2 by antigen stimulated T-cells in vitro. Alternatively, such activity can also be evaluated by assay methods known to one skilled in the art.
Inhibition of IL-2 secretion: Jurkat T cells were seeded at a density of 0.5 to 1 million cells per well in RPMI medium. Test compounds from this invention were added to the cells at different concentrations. This was followed by the addition of PHA, a T cell mitogen after 10 minutes. The cells were then incubated for 20 to 24 hours in a CO2 incubator at 37° C. After incubation with the compounds, cells were centrifuged, the supernatant was collected and processed for ELISA to quantitate the amount of IL-2 secreted. A commercial ELISA kit (R&D Systems, Inc. Minneapolis, Minn., USA) was used to estimate the IL-2 concentrations. Amount of IL-2 secreted by cells stimulated with PHA was considered as a 100% maximal signal and the decrease in amount of IL-2 secreted by cells treated with the test compounds was expressed as percent inhibition of the maximal signal. The dose response data was analyzed using 4-parametric sigmoidal dose response (variable slope) curve-fit.

SMILES	IC50
CN1C(=O)COc2cc(-c3ccc(C(=O)Nc4c(F)cncc4F)cc3)c(C3CC3)cc21 [Example 119, 4-(6-Cyclopropyl-4-methyl-3-oxo-3,4-dihydro-2H-benzo[b][1,4]oxazin-7-yl)-N-(3,5-difluoropyridin-4-yl)benzamide]	100 to 500 nM
Cn1c(=O)oc2c(C3CC3)c(-c3ccc(NC(=O)c4c(F)cccc4F)cc3)ccc21 [Example 23, N-(4-(7-Cyclopropyl-3-methyl-2-oxo-2,3-dihydrobenzo[d]oxazol-6-yl)phenyl)-2,6-difluorobenzamide]	25 to 50 nM
Cn1c(=O)oc2c(C3CC3)c(-c3cnc(NC(=O)c4c(F)cccc4F)cn3)ccc21 [Example 26, N-(5-(7-Cyclopropyl-3-methyl-2-oxo-2,3-dihydrobenzo[d]oxazol-6-yl)pyrazin-2-yl)-2,6-difluorobenzamide]	100 to 500 nM
CN1C(=O)COc2c1ccc(-c1ccc(NC(=O)c3c(F)cccc3F)cc1)c2C1CC1 [Example 107, N-(4-(8-Cyclopropyl-4-methyl-3-oxo-3,4-dihydro-2H-benzo[b][1,4]oxazin-7-yl)phenyl)-2,6-difluorobenzamide]	< 25 nM
Cn1c(=O)oc2cc(C3CC3)c(-c3ccc(NC(=O)c4c(F)cccc4F)nc3)cc21 [Example 83, N-(5-(6-Cyclopropyl-3-methyl-2-oxo-2,3-dihydrobenzo [d]oxazol-5-yl)pyridin-2-yl)-2,6-difluorobenzamide]	25 to 50 nM
Cc1c(-c2ccc(NC(=O)c3c(F)cccc3F)cc2)cnc2c1oc(=O)n2C [Example 1, N-(4-(3,7-Dimethyl-2-oxo-2,3-dihydrooxazolo[4,5-b]pyridin-6-yl)phenyl)-2,6-difluorobenzamide]	25 to 50 nM
Cc1cc2oc(=O)n(C)c2cc1-c1ccc(NCc2c(F)cccc2F)cc1 [Example 55, 5-(4-((2,6-Difluorobenzyl)amino)phenyl)-3,6-dimethyl benzo[d] oxazol-2(3H)-one]	< 25 nM
Cn1c(=O)oc2cc(C3CC3)c(-c3cnc(NC(=O)c4c(F)cccc4F)cn3)cc21 [Example 84, N-(5-(6-Cyclopropyl-3-methyl-2-oxo-2,3-dihydrobenzo [d]oxazol-5-yl)pyrazin-2-yl)-2,6-difluorobenzamide]	25 to 50 nM
CN1C(=O)COc2cc(C3CC3)c(-c3ccc(NC(=O)c4c(F)cccc4F)cc3)cc21 [Example 131, N-(4-(7-Cyclopropyl-4-methyl-3-oxo-3,4-dihydro-2H-benzo[b][1,4]oxazin-6-yl)phenyl)-2,6-difluorobenzamide]	50 to 100 nM
CCc1cc2c(cc1-c1ccc(NC(=O)c3c(F)cccc3F)cc1)oc(=O)n2C [Example 43, N-(4-(5-Ethyl-3-methyl-2-oxo-2,3-dihydrobenzo[d]oxazol-6-yl)phenyl)-2,6-difluorobenzamide]	< 25 nM
CCc1cc2c(cc1-c1cnc(NC(=O)c3c(F)cccc3F)cn1)oc(=O)n2C [Example 70, N-(5-(5-Ethyl-3-methyl-2-oxo-2,3-dihydrobenzo [d]oxazol-6-yl)pyrazin-2-yl)-2,6-difluoro benzamide]	< 25 nM
CCc1c(-c2cnc(NC(=O)c3c(F)cccc3F)cn2)cnc2c1oc(=O)n2C [Example 6, N-(5-(7-Ethyl-3-methyl-2-oxo-2,3-dihydrooxazolo [4,5-b]pyridin-6-yl)pyrazin-2-yl)-2,6-difluorobenzamide]	100 to 500 nM
CN1C(=O)COc2cc(-c3cnc(NC(=O)c4c(F)cccc4Cl)cn3)c(C3CC3)cc21 [Example 117, 2-Chloro-N-(5-(6-cyclopropyl-4-methyl-3-oxo-3,4-dihydro-2H-benzo[b][1,4]oxazin-7-yl)pyrazin-2-yl)-6-fluorobenzamide]	25 to 50 nM
CN1C(=O)COc2cc(-c3ccc(NC(=O)c4c(F)cccc4F)nc3)c(C3CC3)cc21 [Example 115, N-(5-(6-Cyclopropyl-4-methyl-3-oxo-3,4-dihydro-2H-benzo[b][1,4]oxazin-7-yl)pyridin-2-yl)-2,6-difluorobenzamide]	< 25 nM
Cc1cc2c(cc1-c1ccc(C(=O)Nc3c(F)cccc3F)s1)oc(=O)n2C [Example 75, N-(2,6-Difluorophenyl)-5-(3,5-dimethyl-2-oxo-2,3-dihydrobenzo[d]oxazol-6-yl)thiophene-2-carboxamide]	25 to 50 nM
CCc1cc2c(cc1-c1cnc(NC(=O)c3c(F)cccc3F)cn1)OCC(=O)N2C [Example 121, N-(5-(6-Ethyl-4-methyl-3-oxo-3,4-dihydro-2H-benzo[b][1,4]oxazin-7-yl)pyrazin-2-yl)-2,6-difluorobenzamide]	< 25 nM
Cc1cc2oc(=O)n(C)c2cc1-c1cnc(NC(=O)c2c(F)cccc2F)cn1 [Example 51, N-(5-(3,6-dimethyl-2-oxo-2,3-dihydrobenzo[d]oxazol-5-yl)pyrazin-2-yl)-2,6-difluorobenzamide]	50 to 100 nM
Cn1c(=O)oc2cc(-c3cnc(NC(=O)c4c(F)cccc4F)cn3)c(C3CC3)nc21 [Example 86, N-(5-(5-Cyclopropyl-3-methyl-2-oxo-2,3-dihydrooxazolo[4,5-b]pyridin-6-yl)pyrazin-2-yl)-2,6-difluorobenzamide]	25 to 50 nM
Cn1c(=O)oc2cc(C3CC3)c(-c3ccc(C(=O)Nc4c(F)cccc4F)s3)cc21 [Example 89, 5-(6-Cyclopropyl-3-methyl-2-oxo-2,3-dihydrobenzo[d]oxazol-5-yl)-N-(2,6-difluorophenyl) thiophene-2-carboxamide]	< 25 nM
CCc1cc2c(cc1-c1ccc(NC(=O)c3c(F)cccc3F)cc1)N(C)C(=O)CO2 [Example 132, N-(4-(7-Ethyl-4-methyl-3-oxo-3,4-dihydro-2H-benzo[b][1,4]oxazin-6-yl)phenyl)-2,6-difluorobenzamide]	25 to 50 nM
Cc1cc2oc(=O)n(C)c2cc1-c1ccc(C(=O)Nc2c(F)cncc2F)s1 [Example 60, N-(3,5-Difluoropyridin-4-yl)-5-(3,6-dimethyl-2-oxo-2,3-dihydrobenzo [d]oxazol-5-yl) thiophene-2-carboxamide]	< 25 nM
Cn1c(=O)oc2cc(-c3ccc(NC(=O)c4c(F)cccc4F)cc3)c(C3CC3)cc21 [Example 42, N-(4-(5-Cyclopropyl-3-methyl-2-oxo-2,3-dihydrobenzo[d]oxazol-6-yl)phenyl)-2,6-difluorobenzamide]	< 25 nM
Cn1c(=O)oc2c(C3CC3)c(-c3ccc(NCc4c(F)cccc4F)cc3)ccc21 [Example 100, 7-Cyclopropyl-6-(4-((2,6-difluorobenzyl)amino)phenyl)-3-methylbenzo [d]oxazol-2(3H)-one]	25 to 50 nM
CN1C(=O)COc2c1ncc(-c1ccc(NC(=O)c3c(F)cccc3F)cc1)c2C1CC1 [Example 112, N-(4-(8-Cyclopropyl-4-methyl-3-oxo-3,4-dihydro-2H-pyrido[3,2-b][1,4]oxazin-7-yl)phenyl)-2,6-difluorobenzamide]	25 to 50 nM
Cc1cc2oc(=O)n(C)c2cc1-c1ccc(C(=O)Nc2c(Cl)cncc2Cl)s1 [Example 61, N-(3,5-Dichloropyridin-4-yl)-5-(3,6-dimethyl-2-oxo-2,3-dihydrobenzo [d]oxazol-5-yl)thiophene-2-carboxamide]	25 to 50 nM
Cc1cc2oc(=O)n(C(F)F)c2cc1-c1ccc(NC(=O)c2c(F)cccc2F)cn1 [Example 76, N-(6-(3-(Difluoromethyl)-6-methyl-2-oxo-2,3-dihydrobenzo[d]oxazol-5-yl)pyridin-3-yl)-2,6-difluorobenzamide]	25 to 50 nM
